The source of these data is patent publication US9079974B2, “GH-RH analogs with potent agonistic effects” (The University of Miami, priority 2011, dated 2015).

Molecules are shown by their SMILES. Square brackets hold non-standard residues; d marks the D form. Peptide text beside a SMILES is read from it. * marks the point of attachment. Phe(F5) = N[C@@H](Cc1c(F)c(F)c(F)c(F)c1F)C(=O)O; NMeY = CN[C@@H](Cc1ccc(O)cc1)C(=O)O; Agmatine = N=C(N)NCCCCN*; Nle = CCCC[C@H](N)C(=O)O; Orn = NCCC[C@H](N)C(=O)O; Abu = CC[C@H](N)C(=O)O

In this test the target is T1, GHRH receptor (Homo sapiens, UniProt Q02643).
T1 construct: Normal human pituitaries were purchased from the National Hormone and Peptide Program; tissue National Hormone and Peptide Program (A. F. Parlow); host or cells: normal human pituitary, membrane fraction
T1 sequence (Q02643 23-423): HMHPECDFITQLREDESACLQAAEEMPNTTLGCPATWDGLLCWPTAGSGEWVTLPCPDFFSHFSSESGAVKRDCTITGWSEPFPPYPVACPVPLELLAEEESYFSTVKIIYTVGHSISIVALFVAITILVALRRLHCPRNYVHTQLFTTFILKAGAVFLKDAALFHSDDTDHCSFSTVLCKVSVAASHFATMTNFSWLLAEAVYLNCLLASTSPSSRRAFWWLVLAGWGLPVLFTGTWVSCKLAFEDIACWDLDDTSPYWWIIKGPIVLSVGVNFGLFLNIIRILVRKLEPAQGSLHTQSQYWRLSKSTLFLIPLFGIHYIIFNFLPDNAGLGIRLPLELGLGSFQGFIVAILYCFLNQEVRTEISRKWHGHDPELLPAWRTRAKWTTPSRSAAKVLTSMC
Description: GHRH receptor binding, 125I-labeled JV-1-42 ligand competition, human pituitary membrane homogenates (Table 7). The conditions noted are these: 125I-labeled JV-1-42, human pituitary membranes. As for the experimental part:
Preparation of human pituitary membrane fraction and receptor binding of GHRH agonists were performed as previously described, by using a sensitive in vitro ligand competition assay based on binding of ^125I-labeled JV-1-42 to human pituitary membrane homogenates. Normal human pituitaries were purchased from the National Hormone and Peptide Program (A. F. Parlow, Los Angeles, County Harbor-UCLA Medical Center, Torrance, Calif.).
As usually defined, the IC50 is the concentration that inhibits the measured activity by half. A low value points to greater potency. In the case of `CCCC[C@H](NC(=O)[C@@H](NC(=O)[C@H](CC(=O)O)NC(=O)[C@H](CCC(N)=O)NC(=O)[C@H](CC(C)C)NC(=O)[C@H](CC(C)C)NC(=O)[C@H](CCCN)NC(=O)[C@H](CCCNC(=N)N)NC(=O)[C@H](C)NC(=O)[C@H](CO)NC(=O)[C@H](CC(C)C)NC(=O)[C@H](CCC(N)=O)NC(=O)[C@H](CC)NC(=O)[C@H](CC(C)C)NC(=O)[C@@H](NC(=O)[C@H](CCCN)NC(=O)[C@H](CCCNC(=N)N)NC(=O)[C@H](Cc1ccc(O)cc1)NC(=O)[C@H](CO)NC(=O)[C@H](CC(N)=O)NC(=O)[C@@H](NC(=O)[C@H](Cc1c(F)c(F)c(F)c(F)c1F)NC(=O)[C@@H](NC(=O)[C@H](C)NC(=O)[C@H](CC(=O)O)NC(=O)[C@@H](C)NC(=O)[C@H](Cc1ccc(O)cc1)NC)[C@@H](C)CC)[C@@H](C)O)C(C)C)[C@@H](C)CC)C(=O)N[C@@H](CC(=O)O)C(=O)NCCCCNC(=N)N` [Peptide P-20359, [N—Me-Tyr^1, D-Ala^2, Fpa5^6, Orn^12, Abu^15, Orn^21, Nle^27, Asp^28, Agm^29]hGH-RH(1-29)] (H-[NMeY][dA]DAI[Phe(F5)]TNSYR[Orn]VL[Abu]QLSAR[Orn]LLQDI[Nle]D-Agmatine), the 50% inhibitory concentration (IC50) came to 3.05 nM.

`CCCC[C@H](NC(=O)[C@@H](NC(=O)[C@H](CC(=O)O)NC(=O)[C@H](CCC(N)=O)NC(=O)[C@H](CC(C)C)NC(=O)[C@H](CC(C)C)NC(=O)[C@H](CCCN)NC(=O)[C@H](CCCNC(=N)N)NC(=O)[C@H](C)NC(=O)[C@H](CO)NC(=O)[C@H](CC(C)C)NC(=O)[C@H](CCC(N)=O)NC(=O)[C@H](CC)NC(=O)[C@H](CC(C)C)NC(=O)[C@@H](NC(=O)[C@H](CCCN)NC(=O)[C@H](CCCNC(=N)N)NC(=O)[C@H](Cc1ccc(O)cc1)NC(=O)[C@H](CO)NC(=O)[C@H](CCC(N)=O)NC(=O)[C@@H](NC(=O)[C@H](Cc1ccccc1)NC(=O)[C@@H](NC(=O)[C@H](C)NC(=O)[C@H](CC(=O)O)NC(=O)[C@@H](C)NC(=O)[C@H](Cc1ccc(O)cc1)NC)[C@@H](C)CC)[C@@H](C)O)C(C)C)[C@@H](C)CC)C(=O)N[C@@H](CC(=O)O)C(=O)NCCCCNC(=N)N` [Peptide P-20361, [N—Me-Tyr^1, D-Ala^2, Gln^8, Orn^12, Abu^15, Orn^21, Nle^27, Asp^28, Agm^29]hGH-RH(1-29)] (H-[NMeY][dA]DAIFTQSYR[Orn]VL[Abu]QLSAR[Orn]LLQDI[Nle]D-Agmatine): the IC50 is 0.82 nM.

The compound `CCCC[C@H](NC(=O)[C@@H](NC(=O)[C@H](CC(=O)O)NC(=O)[C@H](CCC(N)=O)NC(=O)[C@H](CC(C)C)NC(=O)[C@H](CC(C)C)NC(=O)[C@H](CCCN)NC(=O)[C@H](CCCNC(=N)N)NC(=O)[C@H](C)NC(=O)[C@H](CO)NC(=O)[C@H](CC(C)C)NC(=O)[C@H](CCC(N)=O)NC(=O)[C@H](CC)NC(=O)[C@H](CC(C)C)NC(=O)[C@@H](NC(=O)[C@H](CCCN)NC(=O)[C@H](CCCNC(=N)N)NC(=O)[C@H](Cc1ccc(O)cc1)NC(=O)[C@H](CO)NC(=O)[C@H](CC(N)=O)NC(=O)[C@@H](NC(=O)[C@H](Cc1ccccc1)NC(=O)[C@@H](NC(=O)[C@H](C)NC(=O)[C@H](CC(=O)O)NC(=O)[C@@H](C)NC(=O)[C@H](Cc1ccc(O)cc1)NC)[C@@H](C)CC)[C@@H](C)O)C(C)C)[C@@H](C)CC)C(=O)N[C@@H](CC(=O)O)C(=O)NCCCCNC(=N)N` [Peptide P-20367, [N—Me-Tyr^1, D-Ala^2, Orn^12, Abu^15, Orn^21, Nle^27, Asp^28, Agm^29]hGH-RH(1-29)] (H-[NMeY][dA]DAIFTNSYR[Orn]VL[Abu]QLSAR[Orn]LLQDI[Nle]D-Agmatine) registered an IC50 of 1.7 nM.
